In test [1] the target is human α1G T-type channels (Homo sapiens, UniProt O43497). The test can be described thus: T-type calcium channel block, whole cell patch clamp, α1G. As to conditions: HEK cells stably expressing human α1G; mainly non-inactivated protocol; values above 10,000 nM represented as 10000. Type of test: cell-based. The method in brief: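 Read-out: current block in whole-cell patch clamp of HEK 293 cells stably expressing human α1G or α1H subunits. Compounds were perfused locally in external solution (0.1-0.01% DMSO) under resting and inactivating voltage protocols.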
(In general: The patch-clamp technique gives a direct electrical read-out from membranes.)

The target of test [2] is human α1H T-type channels (Homo sapiens, UniProt O95180). The test can be described thus: T-type calcium channel block, whole cell patch clamp, α1H. Type of test: cell-based. As to conditions: HEK cells stably expressing human α1H; mainly non-inactivated protocol; values above 10,000 nM represented as 10000. The method, then:
T-type calcium channel blocking activity was assayed in human embryonic kidneycells, HEK 293 (Invitrogen), stably transfected with the T-type calcium channel subunits. Briefly, cells were cultured in Dulbecco's modified eagle medium (DMEM) supplemented with 10% fetal bovine serum, 200 U/ml penicillin, and 0.2 mg/mL streptomycin at 37° C. with 5% CO2. At 85% confluency, cells were split with 0.25% trypsin/1 mM EDTA and plated at 10% confluency on glass coverslips. At 12 hours, the medium was replaced, and the cells stably transfected using a standard calcium phosphate protocol and the appropriate calcium channel cDNA's. Fresh DMEM was supplied, and the cells transferred to 28° C./5% CO2.
Standard patch-clamp techniques were employed to identify blockers of T-type currents. Briefly, previously described HEK cell lines stably expressing human α1G, α1H, and α1I T-type channels were used for all the recordings (passage #: 4-20, 37° C., 5% CO2). Whole cell patch clamp experiments were performed using an Axopatch 200B amplifier (Axon Instruments, Burlingame, Calif.) linked to a personal computer equipped with pCLAMP software. Data were analyzed using Clampfit (Axon Instruments) and SigmaPlot 4.0 (Jandel Scientific). To obtain T-type currents, plastic dishes containing semi-confluent cells were positioned on the stage of a ZEISS AXIOVERT S100 microscope after replacing the culture medium with external solution (Table 2). Whole-cell patches were obtained using pipettes (borosilicate glass with filament, O.D.: 1.5 mm, I.D.: 0.86 mm, 10 cm length), fabricated on a SUTTER P-97 puller with resistance values of ˜5 MΩ (Table 3).
T-type currents were reliably obtained by using two voltage protocols: • “non-inactivating,” and • “inactivation.”
Test compounds were dissolved in external solution, 0.1-0.01% DMSO. After ˜10 minutes rest, they were applied by gravity close to the cell using a WPI microfil tubing. The “non-inactivated” pre-pulse was used to examine the resting block of a compound. The “inactivated” protocol was employed to study voltage-dependent block.

A word on the pIC50: it is −log10 of the IC50, conventionally taken in molar units.

pIC50: −log10 of the molar value.

human α1H T-type channels, sequence (O95180 whole entry): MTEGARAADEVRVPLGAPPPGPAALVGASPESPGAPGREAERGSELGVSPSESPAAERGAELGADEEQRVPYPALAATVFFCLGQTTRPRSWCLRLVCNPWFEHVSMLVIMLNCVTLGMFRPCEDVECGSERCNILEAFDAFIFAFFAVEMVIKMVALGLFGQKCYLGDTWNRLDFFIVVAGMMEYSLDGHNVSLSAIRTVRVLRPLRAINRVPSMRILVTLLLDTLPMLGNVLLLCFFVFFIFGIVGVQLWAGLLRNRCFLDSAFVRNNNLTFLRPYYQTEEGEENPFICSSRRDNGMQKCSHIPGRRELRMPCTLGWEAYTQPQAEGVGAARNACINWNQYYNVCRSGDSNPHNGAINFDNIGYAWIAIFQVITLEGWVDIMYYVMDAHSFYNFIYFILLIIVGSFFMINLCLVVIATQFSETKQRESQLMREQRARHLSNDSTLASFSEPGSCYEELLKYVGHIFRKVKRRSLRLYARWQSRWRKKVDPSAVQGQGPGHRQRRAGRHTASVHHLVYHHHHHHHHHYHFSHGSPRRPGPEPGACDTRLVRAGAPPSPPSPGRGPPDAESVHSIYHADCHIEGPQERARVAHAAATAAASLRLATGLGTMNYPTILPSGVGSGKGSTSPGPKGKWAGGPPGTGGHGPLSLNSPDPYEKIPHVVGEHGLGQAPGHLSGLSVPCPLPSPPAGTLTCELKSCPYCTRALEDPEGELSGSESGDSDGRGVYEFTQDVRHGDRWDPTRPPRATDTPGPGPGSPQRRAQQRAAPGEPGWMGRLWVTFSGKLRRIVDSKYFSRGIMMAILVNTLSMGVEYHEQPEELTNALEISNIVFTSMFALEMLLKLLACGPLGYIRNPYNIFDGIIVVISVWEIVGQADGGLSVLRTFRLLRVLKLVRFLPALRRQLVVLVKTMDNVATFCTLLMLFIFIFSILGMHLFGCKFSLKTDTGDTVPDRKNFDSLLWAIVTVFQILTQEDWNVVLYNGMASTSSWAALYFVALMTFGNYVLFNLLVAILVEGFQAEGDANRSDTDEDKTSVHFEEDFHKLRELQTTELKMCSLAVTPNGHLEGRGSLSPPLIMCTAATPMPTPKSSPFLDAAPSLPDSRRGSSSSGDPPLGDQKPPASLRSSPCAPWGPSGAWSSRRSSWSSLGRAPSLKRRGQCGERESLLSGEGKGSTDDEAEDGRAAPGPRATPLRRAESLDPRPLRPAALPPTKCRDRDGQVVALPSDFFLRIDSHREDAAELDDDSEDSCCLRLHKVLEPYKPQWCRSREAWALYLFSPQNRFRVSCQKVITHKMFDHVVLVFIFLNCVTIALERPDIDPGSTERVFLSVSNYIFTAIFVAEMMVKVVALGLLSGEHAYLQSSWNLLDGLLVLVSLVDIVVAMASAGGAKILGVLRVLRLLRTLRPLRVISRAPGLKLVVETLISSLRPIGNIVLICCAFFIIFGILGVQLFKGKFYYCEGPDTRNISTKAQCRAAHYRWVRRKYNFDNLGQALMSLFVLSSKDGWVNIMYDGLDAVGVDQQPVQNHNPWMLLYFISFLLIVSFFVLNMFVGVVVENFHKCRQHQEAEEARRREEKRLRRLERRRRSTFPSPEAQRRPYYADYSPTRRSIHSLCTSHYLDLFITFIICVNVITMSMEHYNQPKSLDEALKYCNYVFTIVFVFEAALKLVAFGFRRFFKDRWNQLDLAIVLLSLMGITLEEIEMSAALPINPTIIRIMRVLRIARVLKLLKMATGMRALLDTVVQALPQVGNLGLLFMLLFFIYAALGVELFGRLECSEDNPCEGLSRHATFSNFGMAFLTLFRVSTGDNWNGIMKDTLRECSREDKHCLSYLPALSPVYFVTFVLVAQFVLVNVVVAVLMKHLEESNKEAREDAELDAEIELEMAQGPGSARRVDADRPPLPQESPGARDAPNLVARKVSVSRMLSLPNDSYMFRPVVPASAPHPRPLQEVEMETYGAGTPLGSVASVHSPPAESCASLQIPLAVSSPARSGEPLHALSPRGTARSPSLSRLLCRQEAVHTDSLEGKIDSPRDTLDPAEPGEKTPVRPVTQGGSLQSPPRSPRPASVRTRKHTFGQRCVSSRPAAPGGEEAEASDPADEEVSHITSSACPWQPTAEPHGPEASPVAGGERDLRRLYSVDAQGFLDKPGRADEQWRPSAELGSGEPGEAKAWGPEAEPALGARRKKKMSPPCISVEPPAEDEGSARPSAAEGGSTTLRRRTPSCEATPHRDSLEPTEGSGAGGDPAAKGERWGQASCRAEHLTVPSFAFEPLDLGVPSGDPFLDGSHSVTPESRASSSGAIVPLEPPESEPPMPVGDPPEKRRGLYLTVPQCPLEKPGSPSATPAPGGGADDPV
human α1G T-type channels, sequence (O43497 whole entry, the tested form may be a part): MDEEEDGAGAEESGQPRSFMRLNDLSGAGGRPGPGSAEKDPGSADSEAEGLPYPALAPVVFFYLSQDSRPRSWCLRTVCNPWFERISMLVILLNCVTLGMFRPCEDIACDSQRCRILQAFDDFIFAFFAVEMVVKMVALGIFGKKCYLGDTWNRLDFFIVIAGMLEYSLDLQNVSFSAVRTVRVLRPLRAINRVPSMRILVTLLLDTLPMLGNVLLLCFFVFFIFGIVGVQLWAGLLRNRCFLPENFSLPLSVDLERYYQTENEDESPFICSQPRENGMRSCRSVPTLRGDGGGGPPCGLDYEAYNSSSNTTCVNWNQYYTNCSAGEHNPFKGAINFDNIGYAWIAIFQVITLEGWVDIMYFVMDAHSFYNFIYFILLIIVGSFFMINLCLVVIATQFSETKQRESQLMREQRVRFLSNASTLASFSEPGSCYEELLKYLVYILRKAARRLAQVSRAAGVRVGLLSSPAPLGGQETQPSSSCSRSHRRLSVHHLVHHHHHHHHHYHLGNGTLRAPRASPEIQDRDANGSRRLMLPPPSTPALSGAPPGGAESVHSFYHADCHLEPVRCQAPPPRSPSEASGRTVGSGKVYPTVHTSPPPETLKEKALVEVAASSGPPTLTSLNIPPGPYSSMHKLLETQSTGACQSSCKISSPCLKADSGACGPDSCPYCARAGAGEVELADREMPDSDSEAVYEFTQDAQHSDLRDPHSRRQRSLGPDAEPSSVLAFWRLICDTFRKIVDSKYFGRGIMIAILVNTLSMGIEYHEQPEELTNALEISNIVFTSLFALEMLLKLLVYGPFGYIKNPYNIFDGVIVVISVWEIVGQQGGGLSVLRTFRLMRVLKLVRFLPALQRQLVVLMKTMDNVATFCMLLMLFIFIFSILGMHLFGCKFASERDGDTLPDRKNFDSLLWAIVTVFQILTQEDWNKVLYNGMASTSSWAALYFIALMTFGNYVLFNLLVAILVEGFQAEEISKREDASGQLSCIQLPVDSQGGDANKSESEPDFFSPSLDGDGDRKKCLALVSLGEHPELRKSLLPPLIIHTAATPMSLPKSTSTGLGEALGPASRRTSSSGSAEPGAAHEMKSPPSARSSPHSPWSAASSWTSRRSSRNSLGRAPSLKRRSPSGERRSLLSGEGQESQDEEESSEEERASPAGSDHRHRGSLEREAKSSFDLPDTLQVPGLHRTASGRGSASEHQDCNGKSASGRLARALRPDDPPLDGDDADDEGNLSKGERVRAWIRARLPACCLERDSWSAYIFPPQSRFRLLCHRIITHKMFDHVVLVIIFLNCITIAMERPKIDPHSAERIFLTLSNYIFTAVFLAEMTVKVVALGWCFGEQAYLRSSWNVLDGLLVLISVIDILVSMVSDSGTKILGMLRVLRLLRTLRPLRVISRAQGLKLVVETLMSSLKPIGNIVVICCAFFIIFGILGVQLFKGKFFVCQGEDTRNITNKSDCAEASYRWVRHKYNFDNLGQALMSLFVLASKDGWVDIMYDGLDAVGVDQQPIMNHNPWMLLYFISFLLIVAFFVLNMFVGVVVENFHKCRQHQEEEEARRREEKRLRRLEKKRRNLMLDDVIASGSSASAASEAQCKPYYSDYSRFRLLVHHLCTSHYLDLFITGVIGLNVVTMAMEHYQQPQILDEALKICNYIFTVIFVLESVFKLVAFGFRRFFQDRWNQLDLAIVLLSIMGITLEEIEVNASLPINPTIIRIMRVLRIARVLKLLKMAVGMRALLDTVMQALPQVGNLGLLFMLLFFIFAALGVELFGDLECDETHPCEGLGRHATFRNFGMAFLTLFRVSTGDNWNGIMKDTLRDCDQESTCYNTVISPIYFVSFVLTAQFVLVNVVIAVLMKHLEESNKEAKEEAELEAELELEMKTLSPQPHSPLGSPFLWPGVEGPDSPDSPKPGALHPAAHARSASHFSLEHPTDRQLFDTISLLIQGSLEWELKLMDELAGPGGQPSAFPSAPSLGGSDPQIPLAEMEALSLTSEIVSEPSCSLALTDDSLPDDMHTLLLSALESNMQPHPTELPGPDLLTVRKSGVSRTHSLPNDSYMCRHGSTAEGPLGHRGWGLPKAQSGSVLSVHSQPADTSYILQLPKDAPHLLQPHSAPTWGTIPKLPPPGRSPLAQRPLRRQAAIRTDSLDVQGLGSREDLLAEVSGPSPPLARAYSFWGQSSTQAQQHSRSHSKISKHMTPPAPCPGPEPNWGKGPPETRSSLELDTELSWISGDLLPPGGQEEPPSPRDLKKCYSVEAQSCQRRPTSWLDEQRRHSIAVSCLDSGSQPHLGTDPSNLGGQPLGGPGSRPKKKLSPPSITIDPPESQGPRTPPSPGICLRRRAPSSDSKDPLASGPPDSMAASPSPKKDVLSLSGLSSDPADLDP

On to `Cc1cc(C(=O)N[C@H]2CC[C@H](CS(=O)(=O)c3cccc(C(F)(F)F)c3)CC2)c(C(F)(F)F)o1` [Compound 172, 5-methyl-2-(trifluoromethyl)-N-((1R,4R)-4-((3-(trifluoromethyl)phenylsulfonyl)methyl)cyclohexyl)furan-3-carboxamide], for which the negative logarithm of the IC50 (pIC50) in test [1] was below 5.00; in test [2], 5.17.

`CC(C)(CCNC(=O)c1ccc(C(F)(F)F)cc1S(C)(=O)=O)S(=O)(=O)c1cccc(C(F)(F)F)c1` [Compound 469, N-(3-methyl-3-(3-(trifluoromethyl)phenylsulfonyl)butyl)-2-(methylsulfonyl)-4-(trifluoromethyl)benzamide]: the pIC50 in test [1] is 6.37; in test [2], 5.30.

On to `CC(C)(CNC(=O)c1ccc(F)c(Cl)c1)S(=O)(=O)c1cccc(C(F)(F)F)c1` [Compound 482, 3-chloro-4-fluoro-N-(2-methyl-2-(3-(trifluoromethyl)phenylsulfonyl)propyl) benzamide], for which the pIC50 is 6.02 in test [1] and 5.43 in test [2].

Turning to `CC(C)(CCNC(=O)c1ccc(Oc2ccc(Cl)cc2)cc1)S(=O)(=O)c1cccc(C(F)(F)F)c1` [Compound 506, 4-(4-chlorophenoxy)-N-(3-methyl-3-(3-(trifluoromethyl)phenylsulfonyl)butyl) benzamide], the negative logarithm of the IC50 (pIC50) was 6.54 in test [1] and 6.19 in test [2].

In the case of `COc1cc(F)cc(C(=O)NCCC(C)(C)S(=O)(=O)c2cccc(C(F)(F)F)c2)c1` [Compound 464, 3-fluoro-5-methoxy-N-(3-methyl-3-(3-(trifluoromethyl)phenylsulfonyl)butyl) benzamide], the negative-log IC50 (pIC50) in test [1] was 7.22; in test [2], 5.67.

As for `CC(C)(CNC(=O)c1cc(C(F)(F)F)ccn1)S(=O)(=O)c1cccc(C(F)(F)F)c1` [Compound 475, N-(2-methyl-2-(3-(trifluoromethyl)phenylsulfonyl)propyl)-4-(trifluoromethyl)picolinamide], the pIC50 in test [1] is 6.32; in test [2], 5.16.

`CC(C)(CNS(=O)(=O)c1ccc2c(c1)OCO2)S(=O)(=O)c1cccc(C(F)(F)F)c1` [Compound 500, N-(2-methyl-2-(3-(trifluoromethyl)phenylsulfonyl)propyl)benzo[d] [1,3]dioxole-5-sulfonamide]: the negative-log IC50 (pIC50) in test [1] was 6.47; in test [2] it was 5.51.

Consider `CC(C)(CNC(=O)c1ccc(Oc2ccc(F)cc2)cc1)S(=O)(=O)c1cccc(C(F)(F)F)c1` [Compound 521, 4-(4-fluorophenoxy)-N-(2-methyl-2-(3-(trifluoromethyl)phenylsulfonyl)propyl) benzamide], for which the pIC50 in test [1] was 6.33; in test [2], 6.04.

On to `CN(CCC(C)(C)S(=O)(=O)c1cccc(C(F)(F)F)c1)C(=O)c1cc(C(F)(F)F)n[nH]1` [Compound 513, N-methyl-N-(3-methyl-3-(3-(trifluoromethyl)phenylsulfonyl)butyl)-3-(trifluoromethyl)-1H-pyrazole-5-carboxamide], for which the negative logarithm of the IC50 (pIC50) in test [1] was 6.31; in test [2] it was below 5.00.

For `CC(C)(C(=O)Nc1ccc(Oc2ccc(F)c(Cl)c2)nc1)S(=O)(=O)c1cccc(C(F)(F)F)c1` [Compound 524, N-(6-(3-chloro-4-tluorophenoxy)pyridin-3-yl)-2-methyl-2-(3-(trifluoromethyl)phenylsulfonyl)propanamide], the negative-log IC50 (pIC50) is 6.42 in test [1] and 5.68 in test [2].

Consider `CC(C)(C)c1cc(C(=O)NCC(C)(C)S(=O)(=O)c2cccc(C(F)(F)F)c2)ccn1` [Compound 484, 2-tert-butyl-N-(2-methyl-2-(3-(trifluoromethyl)phenylsulfonyl)propyl) isonicotinamide], for which the negative-log IC50 (pIC50) in test [1] was 6.28; in test [2] it was 5.17.

Turning to `CC(C)(CNC(=O)c1cc(F)cc(Cl)c1)S(=O)(=O)c1cccc(C(F)(F)F)c1` [Compound 455, 3-chloro-5-fluoro-N-(2-methyl-2-(3-(trifluoromethyl)phenylsulfonyl)propyl)benzamide], the values for the pIC50 in test [1] and in test [2] were 6.40 and 5.60, respectively.

For `Cn1nc(C(F)(F)F)cc1C(=O)NCCC(C)(C)S(=O)(=O)c1cc(F)cc(C(F)(F)F)c1` [Compound 535, N-(3-(3-fluoro-5-(trifluoromethyl)phenylsulfonyl)-3-methylbutyl)-l-methyl-3-(trifluoromcthyl)-1H-pyrazole-5-carboxamide], the negative logarithm of the IC50 (pIC50) was 6.15 in test [1] and 5.38 in test [2].

On to `CS(=O)(=O)c1ccc(C(=O)N[C@H]2CC[C@H](S(=O)(=O)c3cccc(C(F)(F)F)c3)CC2)c(Cl)c1` [Compound 122, 2-chloro-4-(methylsulfonyl)-N-((1R,4R)-4-(3-(trifluoromethyl)phenylsulfonyl)cyclohexyl)benzamide], for which the pIC50 in test [1] was 6.16; in test [2], 6.00.

As to `CC(C)(CNS(=O)(=O)c1ccc2c(c1)NC(=O)CO2)S(=O)(=O)c1cccc(C(F)(F)F)c1` [Compound 492, N-(2-methyl-2-(3-(trifluoromethyl)phenylsulfonyl)propyl)-3-oxo-3,4-dihydro-2H-benzo[b][1,4]oxazine-6-sulfonamide], the pIC50 was 6.23 in test [1] and 5.03 in test [2].

In the case of `CN(CCC(C)(C)S(=O)(=O)c1cccc(C(F)(F)F)c1)C(=O)c1ccc(F)c(C(F)(F)F)c1` [Compound 510, 4-fluoro-N-methyl-N-(3-methyl-3-(3-(trifluoromethyl)phenylsulfonyl)butyl)-3-(trifluoromethyl)benzamide], the pIC50 was 6.77 in test [1] and 5.23 in test [2].

With `CC1(NC(=O)CNCC(C)(C)S(=O)(=O)c2cccc(C(F)(F)F)c2)CCC1` [Compound 459, 2-(2-methyl-2-(3-(trifluoromethyl)phenylsulfonyl)propylamino)-N-(l-methylcyclobutyl)acetamide], the negative logarithm of the IC50 (pIC50) is 6.09 in test [1] and below 5.00 in test [2].

As for `CC(C)(CCNCC(=O)NC1CCCCC1)S(=O)(=O)c1cccc(C(F)(F)F)c1` [Compound 472, N-cyclohexyl-2-(3-methyl-3-(3-(trifluoromethyl)phenylsulfonyl)butylamino) acetamide], the pIC50 in test [1] was 6.21; in test [2], 5.46.

On to `CC(C)(CCS(=O)(=O)c1ccc(Cl)cc1)S(=O)(=O)c1cccc(C(F)(F)F)c1` [Compound 462, 1-(4-(4-chlorophenylsulfonyl)-2-methylbutan-2-ylsulfonyl)-3-(trifluoromethyl)benzene], for which the negative logarithm of the IC50 (pIC50) in test [1] was 6.25; in test [2] it was below 5.00.

Consider `CC(C)(CCNC(=O)c1ccc(Oc2ccc(Cl)cc2)cc1)S(=O)(=O)c1cc(F)cc(C(F)(F)F)c1` [Compound 537, 4-(4-chlorophenoxy)-N-(3-(3-fluoro-5-(trifluoromethyl)phenylsulfonyl)-3-methylbutyl)benzamide], for which the pIC50 in test [1] is 6.33; in test [2] it was 6.13.

With `CC(C)(C(=O)NCCc1ccc(Cl)c(Cl)c1)S(=O)(=O)c1cccc(C(F)(F)F)c1` [Compound 451, N-(3,4-dichlorophenethyl)-2-methyl-2-(3-(trifluoromethyl)phenylsulfonyl)propanamide], the negative logarithm of the IC50 (pIC50) in test [1] was 6.59; in test [2], 5.62.

Turning to `CC(C)(CNC(=O)c1ccc(C(F)(F)F)cn1)S(=O)(=O)c1cccc(C(F)(F)F)c1` [Compound 476, N-(2-methyl-2-(3-(trifluoromethyl)phenylsulfonyl)propyl)-5-(trifluoromethyl)picolinamide], the pIC50 was 6.40 in test [1] and 5.25 in test [2].

`CC(C)(C(=O)Nc1nc2ccc(Cl)cc2s1)S(=O)(=O)c1cccc(C(F)(F)F)c1` [Compound 449, N-(6-chlorobenzo[d]thiazol-2-yl)-2-methyl-2-(3-(trifluoromethyl)phenylsulfonyl)propanamide]: the results for the negative logarithm of the IC50 (pIC50) in test [1] and in test [2] were 6.35 and 6.26, respectively.

For the compound `CC(C)(CNS(=O)(=O)c1ccc(C(F)(F)F)cc1Cl)S(=O)(=O)c1cccc(C(F)(F)F)c1` [Compound 498, 2-chloro-N-(2-methyl-2-(3-(trifluoromethyl)phenylsulfonyl)propyl)-4-(trifluoromethyl) benzenesulfonamide], the pIC50 in test [1] was 6.59; in test [2] it was 5.86.

Regarding `CC(C)S(=O)(=O)c1cc(C(F)(F)F)cnc1C(=O)NCCC(C)(C)S(=O)(=O)c1cccc(C(F)(F)F)c1` [Compound 528, 3-(isopropylsulfonyl)-N-(3-methyl-3-(3-(trifluoromethyl)phenylsulfonyl)butyl)-5-(trifluoromethyl)picolinamide], the pIC50 in test [1] is 7.10; in test [2], 5.62.

(Values after patent US20120245137A1 (Zalicus Pharmaceuticals Ltd., priority 2009, published 2012).)
